Reference: article PMC12326976 (Antimicrobial Agents and Chemotherapy, 2025)
Peptide text beside a SMILES is read from it.

Tests used:
[1] = tested on: H1N1 virus; assay: Plaque reduction assay, H1N1 in MDCK cells; assay type: cell-based, influenza A/Hong Kong/415742/2009 (H1N1); details: H30 in 20% PBS compared to PBS, plaque assay, Fig. S1
Procedure: The antiviral activity of peptides was measured by plaque reduction assay. Briefly, peptides were dissolved in PBS or 20% PBS. Peptides (0.2-25.0 µg mL^−1) were premixed with H1N1 virus at room temperature. After 30 min of incubation, the peptide-virus mixture was transferred to MDCK cells for infection at 37°C. At 1 hpi, infectious media were removed, and then 1% low melting agar was added to cells. Cells were fixed using 4% formalin at 2–3 dpi. […] (0.1%) was added to cells for cell staining to count viral plaques.

[2] = tested on: rhinovirus A1; assay type: cell-based
[3] = tested on: H1N1 virus; assay type: cell-based, influenza H1N1 virus

In the case of CC[C@H](C)[C@H](NC(=O)[C@H](C)NC(=O)CN)C(=O)N[C@@H](CS)C(=O)N[C@@H](Cc1c[nH]cn1)C(=O)N1CCC[C@H]1C(=O)N[C@H](C(=O)N[C@@H](Cc1ccccc1)C(=O)N[C@@H](CS)C(=O)N1CCC[C@H]1C(=O)N[C@@H](CCCNC(=N)N)C(=O)N[C@@H](CCCNC(=N)N)C(=O)N[C@@H](Cc1ccc(O)cc1)C(=O)N[C@@H](CCCCN)C(=O)N[C@@H](CCC(N)=O)C(=O)N[C@H](C(=O)NCC(=O)N[C@H](C(=O)N[C@@H](CS)C(=O)NCC(=O)N[C@@H](CC(C)C)C(=O)N1CCC[C@H]1C(=O)NCC(=O)N[C@H](C(=O)N[C@@H](CCCCN)C(=O)N[C@@H](CS)C(=O)N[C@@H](CS)C(=O)N[C@@H](CCCCN)C(=O)N[C@@H](CCCCN)C(=O)N1CCC[C@H]1C(=O)O)[C@@H](C)O)[C@@H](C)O)[C@@H](C)CC)C(C)C [H30] (H-GAICHPVFCPRRYKQIGTCGLPGTKCCKKP-OH; N-terminus and C-terminus assumed), the “antiviral activity against H1N1 in low salt” value [1] was “could show antiviral activity in the low salt condition of 20% phosphate-buffered saline” and the “antiviral activity against rhinovirus A1 in low salt” value [2] was “could show more effective antiviral activity in low salt conditions”.
With CC(=O)N[C@H]1[C@H]([C@H](O)[C@H](O)CO)OC(C(=O)O)=C[C@@H]1N=C(N)N [zanamivir, reference compound] the “H1N1 viral release, supernatant virus at 8 hpi” value [3] was “significantly inhibited H1N1 viral release from cells”.
